Data reported in patent US10722514B2 (FLX Bio, Inc., priority 2017, dated 2020).
Like-named read-outs stand apart in the source and are kept apart here.

Target: T1, recombinant full-length USP7 (Homo sapiens, UniProt Q93009)
T1 construct: A 25 μl reaction volume containing recombinant full-length USP7 (62 pM)
Assay: USP7-mediated ubiquitin-rhodamine cleavage assay
Format: biochemical
Conditions: recombinant full-length USP7 62 pM, ubiquitin-rhodamine 100 nM, 1 hour reaction at room temperature
Description: In the case of the USP7 deubiquitylating enzyme, the IC50 of an USP7 inhibiting compound is the concentration of the compound that inhibits 50% of the activity observed in a USP7-mediated ubiquitin-rhodamine cleavage assay.
For the USP7 inhibitors disclosed herein, their potency was measured using the following test method.
A 25 μl reaction volume containing recombinant full-length USP7 (62 pM) in 20 mM HEPES pH 7.3, 150 mM NaCl, 1 mM TCEP, and 125 μg/ml BSA was assembled in wells of 384 well plates. Test compounds were dispensed with a Hewlett Packard D300 digital dispenser (1% final DMSO). Following a 30-minute incubation at room temperature, ubiquitin-rhodamine was added with the D300 to a final concentration of 100 nM and the reaction was allowed to proceed for 1 hour at room temperature protected from light. The reaction was stopped by the addition of 5 μl 1M acetic acid. Rhodamine fluorescence was measured using an Envision plate reader (Perkin Elmer) and IC50 values were determined by non-linear regression using a 4-parameter fit in a Dotmatics (Bishops Stortford, Hertfordshire, England) software package.

[1] = 30-minute incubation with compound, read-out: Potency: USP7 IC50
[2] = 30-minute pre-incubation, read-out: Potency (USP7 IC50)
[3] = 30-minute incubation, read-out: Potency (USP7 IC50)

T1 sequence (Q93009 whole entry): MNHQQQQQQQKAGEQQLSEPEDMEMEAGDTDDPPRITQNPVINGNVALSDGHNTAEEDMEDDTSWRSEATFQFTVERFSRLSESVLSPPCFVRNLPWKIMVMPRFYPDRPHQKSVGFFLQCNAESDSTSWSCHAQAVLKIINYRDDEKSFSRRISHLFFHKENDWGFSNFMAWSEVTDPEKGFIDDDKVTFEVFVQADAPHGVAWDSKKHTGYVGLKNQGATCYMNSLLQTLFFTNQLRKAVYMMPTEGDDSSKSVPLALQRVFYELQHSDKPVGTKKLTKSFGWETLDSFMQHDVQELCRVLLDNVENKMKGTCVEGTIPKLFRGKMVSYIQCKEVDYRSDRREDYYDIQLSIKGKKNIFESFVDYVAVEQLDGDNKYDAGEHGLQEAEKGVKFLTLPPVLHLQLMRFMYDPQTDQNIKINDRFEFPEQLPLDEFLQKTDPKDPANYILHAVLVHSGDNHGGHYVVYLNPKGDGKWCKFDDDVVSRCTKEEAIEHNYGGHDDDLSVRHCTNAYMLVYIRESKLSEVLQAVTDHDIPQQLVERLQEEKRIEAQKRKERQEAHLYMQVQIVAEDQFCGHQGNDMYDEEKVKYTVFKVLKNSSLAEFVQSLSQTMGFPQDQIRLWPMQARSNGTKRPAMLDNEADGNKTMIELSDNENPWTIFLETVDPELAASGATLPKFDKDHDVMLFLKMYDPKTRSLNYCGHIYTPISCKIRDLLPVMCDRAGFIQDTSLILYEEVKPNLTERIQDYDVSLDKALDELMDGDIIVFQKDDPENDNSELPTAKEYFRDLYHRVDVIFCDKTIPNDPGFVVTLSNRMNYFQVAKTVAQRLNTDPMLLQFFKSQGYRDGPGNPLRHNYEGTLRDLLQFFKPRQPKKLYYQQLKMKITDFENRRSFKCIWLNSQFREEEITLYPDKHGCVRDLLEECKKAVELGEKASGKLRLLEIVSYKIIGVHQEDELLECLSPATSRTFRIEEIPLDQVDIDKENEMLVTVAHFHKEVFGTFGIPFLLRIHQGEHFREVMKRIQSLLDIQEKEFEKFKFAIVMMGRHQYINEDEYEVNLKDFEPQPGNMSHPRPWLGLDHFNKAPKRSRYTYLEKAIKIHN

Row | SMILES | IC50 [1] | IC50 [2] | also measured
1 | Cc1cc(Cl)cc(-c2ccnc3cc(CN4C(=O)c5cccnc5C4=O)sc23)c1O[C@H]1CCCNC1 [Example 334, 6-[[7-[5-chloro-3-methyl-2-[[(3S)-3-piperidyl]oxy]phenyl]thieno[3,2-b]pyridin-2-yl]methyl]pyrrolo[3,4-b]pyridine-5,7-dione; 2,2,2-trifluoroacetic acid] | < 1 µM |  | 
2 | Cc1cc(Cl)cc(-c2ccnc3cc(CN4C(=O)C5CC5C4=O)sc23)c1O[C@@H]1CNC[C@@H]1F (stereo partly drawn) [Example 300, 3-[[7-[5-chloro-2-[(3R,4S)-4-fluoropyrrolidin-3-yl]oxy-3-methyl-phenyl]thieno[3,2-b]pyridin-2-yl]methyl]-3-azabicyclo[3.1.0]hexane-2,4-dione] | < 1 µM |  | 
3 | Cc1cc(Cl)cc(-c2ccnc3cc(CN4C(=O)CC5(CCC5)C4=O)sc23)c1O[C@H]1CCCNC1 [Example 317, 6-[[7-[5-chloro-3-methyl-2-[[(3S)-3-piperidyl]oxy]phenyl]thieno[3,2-b]pyridin-2-yl]methyl]-6-azaspiro[3.4]octane-5,7-dione; 2,2,2-trifluoroacetic acid] | < 1 µM |  | 
4 | Cc1cc(Cl)cc(-c2ccnc3cc(CN4C(=O)CCC4=O)sc23)c1O[C@@H]1CNCC[C@H]1C [Example 415, 1-[[7-[5-chloro-3-methyl-2-[[(3S,4R)-4-methyl-3-piperidyl]oxy]phenyl]thieno[3,2-b]pyridin-2-yl]methyl]pyrrolidine-2,5-dione] |  | < 1 µM | 
5 | Cc1cc(Cl)cc(-c2ccnc3cc(CN4C(=O)OC(C)(C)C4=O)sc23)c1O[C@@H]1CNC[C@@H]1F [Example 133, 3-((7-(5-Chloro-2-(((3R,4S)-4-fluoropyrrolidin-3-yl)oxy)-3-methylphenyl)thieno[3,2-b]pyridin-2-yl)methyl)-5,5-dimethyloxazolidine-2,4-dione] | < 1 µM |  | 
6 | Cc1cc(Cl)cc(-c2ccnc3cc(CN4C(=O)CCC4=O)ccc23)c1O[C@@H]1CNC[C@@H]1F [Example 100, 1-((4-(5-Chloro-2-(((3R,4S)-4-fluoropyrrolidin-3-yl)oxy)-3-methylphenyl)quinolin-7-yl)methyl)pyrrolidine-2,5-dione] | 10 to 30 µM |  | 
7 | Cc1cc(Cl)cc(-c2ccnc3cc(CN4C(=O)CN(CC(F)(F)F)C4=O)sc23)c1O[C@H]1CCCNC1 [Example 693, 3-[[7-[5-chloro-3-methyl-2-[[(3S)-3-piperidyl]oxy]phenyl]thieno[3,2-b]pyridin-2-yl]methyl]-1-(2,2,2-trifluoroethyl)imidazolidine-2,4-dione; 2,2,2-trifluoroacetic acid] |  |  | IC50 [3]: < 1 µM
8 | Cc1cc(Cl)cc(-c2ccnc3cc(CO)sc23)c1OCCC1CNC1 [Example 30, (7-(2-(2-(Azetidin-3-yl)ethoxy)-5-chloro-3-methylphenyl)thieno[3,2-b]pyridin-2-yl)methanol] | > 30 µM |  | 
9 | Cc1cc(Cl)cc(-c2ccnc3cc(CO)sc23)c1OCC12CNCC1C2 (centres unmarked) [Example 69, (7-(2-((3-Azabicyclo[3.1.0]hexan-1-yl)methoxy)-5-chloro-3-methylphenyl)thieno[3,2-b]pyridin-2-yl)methanol] | 10 to 30 µM |  | 
10 | Cc1cc(Cl)cc(-c2ccnc3cc(Cn4c(=O)ccn(CC(F)(F)F)c4=O)sc23)c1OC1CNC1 [Example 61, 3-((7-(2-(Azetidin-3-yloxy)-5-chloro-3-methylphenyl)thieno[3,2-b]pyridin-2-yl)methyl)-1-(2,2,2-trifluoroethyl)pyrimidine-2,4(1H,3H)-dione] | < 1 µM |  | 
11 | Cc1cc(C(F)(F)F)cc(-c2ccnc3cc(Cn4c(=O)[nH]cc(C)c4=O)sc23)c1O[C@@H]1CNC[C@@H]1F [Example 434, 3-[[7-[2-[(3R,4S)-4-fluoropyrrolidin-3-yl]oxy-3-methyl-5-(trifluoromethyl)phenyl]thieno[3,2-b]pyridin-2-yl]methyl]-5-methyl-1H-pyrimidine-2,4-dione] |  | < 1 µM | 
12 | CCN1CC[C@@H](Oc2c(C)cc(Cl)cc2-c2ccnc3cc(Cn4c(=O)ccn(C)c4=O)sc23)[C@@H](C)C1 [Example 455, 3-[[7-[5-chloro-2-[[(3S,4R)-1-ethyl-3-methyl-4-piperidyl]oxy]-3-methyl-phenyl]thieno[3,2-b]pyridin-2-yl]methyl]-1-methyl-pyrimidine-2,4-dione] |  | < 1 µM | 
13 | Cc1cc(Cl)cc(-c2ccnc3cc(CCN4C(=O)c5ccccc5S4(=O)=O)sc23)c1O[C@@H]1CNC[C@@H]1F [Example 139, 2-(2-(7-(5-Chloro-2-(((3R,4S)-4-fluoropyrrolidin-3-yl)oxy)-3-methylphenyl)thieno[3,2-b]pyridin-2-yl)ethyl)benzo[d]isothiazol-3(2H)-one 1,1-dioxide] | 10 to 30 µM |  | 
14 | Cc1cc(Cl)cc(-c2ccnc3cc(Cn4c(=O)ccn(CC(F)(F)F)c4=O)sc23)c1OC1CC(O)C1 (centres unmarked) [Example 678, 3-[[7-[5-chloro-2-(3-hydroxycyclobutoxy)-3-methyl-phenyl]thieno[3,2-b]pyridin-2-yl]methyl]-1-(2,2,2-trifluoroethyl)pyrimidine-2,4-dione] |  |  | IC50 [3]: < 1 µM
15 | Cc1cc(Cl)cc(-c2ccnc3cc(Cn4c(=O)ccn(CC(F)(F)F)c4=O)sc23)c1OC1CCOCC1 [Example 670] |  |  | IC50 [3]: < 1 µM
16 | Cc1cc(Cl)cc(-c2ccnc3cc(CN4C(=O)CCC4=O)sc23)c1O[C@@H]1CC[C@@H](N)C1 [Example 126, 1-((7-(2-(((1R,3R)-3-Aminocyclopentyl)oxy)-5-chloro-3-methylphenyl)thieno[3,2-b]pyridin-2-yl)methyl)pyrrolidine-2,5-dione] | < 1 µM |  | 
17 | CCC(O)c1cc2nccc(-c3cccc(C)c3OC3CCNCC3)c2s1 (centres unmarked) [Example 172, 1-(7-(3-Methyl-2-(piperidin-4-yloxy)phenyl)thieno[3,2-b]pyridin-2-yl)propan-1-ol] | 10 to 30 µM |  | 
18 | Cc1cc(Cl)cc(-c2ccnc3cc(CO)sc23)c1O[C@@H]1CNC[C@H]1O [Example 80, (3R,4R)-4-(4-Chloro-2-(2-(hydroxymethyl)thieno[3,2-b]pyridin-7-yl)-6-methylphenoxy)pyrrolidin-3-ol] | 1 to 10 µM |  | 

Continued, in another order:

Row | IC50 [1] | IC50 [2] | SMILES | also measured
19 |  | < 1 µM | Cc1cc(Cl)cc(-c2ccnc3cc(Cn4c(=O)ccn(CC(F)(F)F)c4=O)sc23)c1O[C@H]1CCNC[C@@H]1C [Example 629, 3-[[7-[5-chloro-3-methyl-2-[[(3S,4S)-3-methyl-4-piperidyl]oxy]phenyl]thieno[3,2-b]pyridin-2-yl]methyl]-1-(2,2,2-trifluoroethyl)pyrimidine-2,4-dione] | 
20 |  | < 1 µM | Cc1cc(Cl)cc(-c2ccnc3cc(CN4C(=O)CCC4=O)sc23)c1O[C@H]1CCCN(CC(=O)O)C1 [Example 579, 2-[(3S)-3-[4-chloro-2-[2-[(2,5-dioxopyrrolidin-1-yl)methyl]thieno[3,2-b]pyridin-7-yl]-6-methyl-phenoxy]-1-piperidyl]acetic acid] | 
21 |  | < 1 µM | Cc1cc(Cl)cc(-c2ccnc3cc(Cn4c(=O)ccn(CC(F)(F)F)c4=O)sc23)c1O[C@@H]1CCN(C2CCOC2)C[C@H]1C (stereo partly drawn) [Example 608, 3-[[7-[5-chloro-3-methyl-2-[[(3R,4R)-3-methyl-1-tetrahydrofuran-3-yl-4-piperidyl]oxy]phenyl]thieno[3,2-b]pyridin-2-yl]methyl]-1-(2,2,2-trifluoroethyl)pyrimidine-2,4-dione] | 
22 |  | < 1 µM | Cc1cc(Cl)cc(-c2ccnc3cc(Cn4c(=O)ccn(CC(F)(F)F)c4=O)sc23)c1OC1CN2CCC1C2 [Example 589, 3-[[7-[2-[[(1S,3S,4R)-1-azabicyclo[2.2.1]heptan-3-yl]oxy]-5-chloro-3-methyl-phenyl]thieno[3,2-b]pyridin-2-yl]methyl]-1-(2,2,2-trifluoroethyl)pyrimidine-2,4-dione] | 
23 |  | < 1 µM | Cc1cc(Cl)cc(-c2ccnc3cc(Cn4c(=O)ccn(CC(F)(F)F)c4=O)sc23)c1OC1CC2CNC1C2 (centres unmarked) [Example 535, 3-[[7-[2-(3-azabicyclo[2.2.1]heptan-5-yloxy)-5-chloro-3-methyl-phenyl]thieno[3,2-b]pyridin-2-yl]methyl]-1-(2,2,2-trifluoroethyl)pyrimidine-2,4-dione] | 
24 |  | < 1 µM | Cc1cc(Cl)cc(-c2ccnc3cc(Cn4c(=O)c(F)cn(C)c4=O)sc23)c1O[C@@H]1CNC[C@@H]1F [Example 470, 3-[[7-[5-chloro-2-[(3R,4S)-4-fluoropyrrolidin-3-yl]oxy-3-methyl-phenyl]thieno[3,2-b]pyridin-2-yl]methyl]-5-fluoro-1-methyl-pyrimidine-2,4-dione] | 
25 |  | < 1 µM | Cc1cc(Cl)cc(-c2ccnc3cc(Cn4c(=O)ccn(C(C)C)c4=O)sc23)c1OC1CN2CCC1C2 [Example 590, 3-[[7-[2-[[(1S,3S,4R)-1-azabicyclo[2.2.1]heptan-3-yl]oxy]-5-chloro-3-methyl-phenyl]thieno[3,2-b]pyridin-2-yl]methyl]-1-isopropyl-pyrimidine-2,4-dione] | 
26 |  | < 1 µM | Cc1cc(Cl)cc(-c2ccnc3cc(Cn4c(=O)ccn(CC(F)(F)F)c4=O)sc23)c1OC1CC2CC1CN2 (centres unmarked) [Example 577, 3-[[7-[2-(2-azabicyclo[2.2.1]heptan-5-yloxy)-5-chloro-3-methyl-phenyl]thieno[3,2-b]pyridin-2-yl]methyl]-1-(2,2,2-trifluoroethyl)pyrimidine-2,4-dione; 2,2,2-trifluoroacetic acid] | 
